Our source for the EC50 values is patent US11066414B2, “Cot modulators and methods of use thereof” (Gilead Sciences, Inc., priority 2015, dated 2021).

pEC50: −log10 of the molar value.

A word on the pEC50: it is −log10 of the EC50, conventionally taken in molar units.

The first experiment concerns TNFα. Kind of experiment: Cot Monocyte TNFα Cell Based Assay. The note with it: Homo sapiens, Monocyte, read-out: EC50 TNF, LPS-stimulated human monocytes, TNFα.
For `Cn1ccc2c([C@H](Nc3cc(C#N)c4ncc(C#N)c(NCC(C)(C)C)c4c3)c3cn(C4(C(F)(F)F)CC4)nn3)ccnc21` [Example 664, (S)-6-(((1-methyl-1H-pyrrolo[2,3-b]pyridin-4-yl)(1-(1-(trifluoromethyl)cyclopropyl)-1H-1,2,3-triazol-4-yl)methyl)amino)-4-(neopentylamino)quinoline-3,8-dicarbonitrile], the pEC50 was 6.81. Still for that read-out and setting: the figure for `[2H]C([2H])(Nc1c(C#N)cnc2c(Cl)cc(N[C@@]([2H])(c3ccc(N(C)C)nc3)c3cn(C4CC4)nn3)cc12)C(C)(C)C` [Example 679, (S)-8-chloro-6-(((1-cyclopropyl-1H-1,2,3-triazol-4-yl)(6-(dimethylamino)pyridin-3-yl)methyl-d)amino)-4-((2,2-dimethylpropyl-1,1-d2)amino)quinoline-3-carbonitrile] is 6.15; for `Cc1ccc([C@H](Nc2cc(Cl)c3ncc(C#N)c(NCC(C)(C)C)c3c2)c2cn(C3(C(F)(F)F)CC3)nn2)c(C)n1` [Example 687, (S)-8-chloro-6-(((2,6-dimethylpyridin-3-yl)(1-(1-(trifluoromethyl)cyclopropyl)-1H-1,2,3-triazol-4-yl)methyl)amino)-4-(neopentylamino)quinoline-3-carbonitrile] it is 6.75; for `CC(C)(C)CNc1c(C#N)cnc2c(Cl)cc(N[C@H](c3cn(C(C)(C)C(F)F)nn3)c3cccc4ncccc34)cc12` [Example 693, (S)-8-chloro-6-(((1-(1,1-difluoro-2-methylpropan-2-yl)-1H-1,2,3-triazol-4-yl)(quinolin-5-yl)methyl)amino)-4-(neopentylamino)quinoline-3-carbonitrile] it is 6.85. Consider `CC(C)(C)CNc1c(C#N)cnc2c(Cl)cc(N[C@@H](c3ccc4cccnc4c3)c3cn(C4(C(F)F)CC4)nn3)cc12` [Example 699, (S)-8-chloro-6-(((1-(1-(difluoromethyl)cyclopropyl)-1H-1,2,3-triazol-4-yl)(quinolin-7-yl)methyl)amino)-4-(neopentylamino)quinoline-3-carbonitrile], for which the pEC50 is 6.41.

As for `Cc1nc(F)ccc1[C@H](Nc1cc(Cl)c2ncc(C#N)c(NCC(C)(C)CO)c2c1)c1cn(C2(C(F)F)CC2)nn1` [Example 746, (S)-8-chloro-6-(((1-(1-(difluoromethyl)cyclopropyl)-1H-1,2,3-triazol-4-yl)(6-fluoro-2-methylpyridin-3-yl)methyl)amino)-4-((3-hydroxy-2,2-dimethylpropyl)amino)quinoline-3-carbonitrile], the negative-log EC50 (pEC50) was 6.75. In the case of `Cc1nc(F)ccc1[C@H](Nc1cc(Cl)c2ncc(C#N)c(NCC(C)(C)C)c2c1)c1cn(CC(C)(F)F)nn1` [Example 749, (S)-8-chloro-6-(((1-(2,2-difluoropropyl)-1H-1,2,3-triazol-4-yl)(6-fluoro-2-methylpyridin-3-yl)methyl)amino)-4-(neopentylamino)quinoline-3-carbonitrile], the pEC50 is 7.18. As for `Cc1nc(F)ccc1[C@H](Nc1cc(Cl)c2ncc(C#N)c(NCC(C)(C)C)c2c1)c1cn(CC2(C(F)(F)F)CC2)nn1` [Example 751, (S)-8-chloro-6-(((6-fluoro-2-methylpyridin-3-yl)(1-((1-(trifluoromethyl)-cyclopropyl)methyl)-1H-1,2,3-triazol-4-yl)methyl)amino)-4-(neopentylamino)quinoline-3-carbonitrile], the pEC50 was 6.64. On the same count and under the same terms, with `Cc1nc(F)ccc1[C@H](Nc1cc(Cl)c2ncc(C#N)c(NCC(C)(C)C)c2c1)c1cn(C2(CC(F)(F)F)CC2)nn1` [Example 753, (S)-8-chloro-6-(((6-fluoro-2-methylpyridin-3-yl)(1-(1-(2,2,2-trifluoroethyl)-cyclopropyl)-1H-1,2,3-triazol-4-yl)methyl)amino)-4-(neopentylamino)quinoline-3-carbonitrile] the figure was 7.23; with `Cc1nc(F)ccc1[C@H](Nc1cc(Cl)c2ncc(C#N)c(NCC(C)(C)C)c2c1)c1cn(C2(C(C)(C)C)CC2)nn1` [Example 761, (S)-6-(((1-(1-(tert-butyl)cyclopropyl)-1H-1,2,3-triazol-4-yl)(6-fluoro-2-methylpyridin-3-yl)methyl)amino)-8-chloro-4-(neopentylamino)quinoline-3-carbonitrile], 7.16; with `CC(C)n1ccc2c([C@H](Nc3cc(Cl)c4ncc(C#N)c(NCC(C)(C)C)c4c3)c3cn(C4(C)CC4)nn3)cccc2c1=O` [Example 774, (S)-8-chloro-6-(((2-isopropyl-1-oxo-1,2-dihydroisoquinolin-5-yl)(1-(1-methylcyclopropyl)-1H-1,2,3-triazol-4-yl)methyl)amino)-4-(neopentyl-amino)quinoline-3-carbonitrile], 7.40. In the case of `Cn1ccc2c([C@H](Nc3cc(Cl)c4ncc(C#N)c(NCC(C)(C)C)c4c3)c3cn(C(CF)CF)nn3)cccc2c1=O` [Example 777, (S)-8-chloro-6-(((1-(1,3-difluoropropan-2-yl)-1H-1,2,3-triazol-4-yl)(2-methyl-1-oxo-1,2-dihydroisoquinolin-5-yl)methyl)amino)-4-(neopentylamino)quinoline-3-carbonitrile], the pEC50 was 7.34. The same measure, in the same setting: the figure for `COc1ncccc1[C@H](Nc1cc(Cl)c2ncc(C#N)c(NCC(C)(C)C)c2c1)c1cn(C2(C(F)(F)F)CC2)nn1` [Example 782, (S)-8-chloro-6-(((2-methoxypyridin-3-yl)(1-(1-(trifluoromethyl)cyclopropyl)-1H-1,2,3-triazol-4-yl)methyl)amino)-4-(neopentylamino)quinoline-3-carbonitrile] is 6.75.

As to `CC(C)(C)CNc1c(C#N)cnc2c(Cl)cc(N[C@H](c3cn(C4(C(F)(F)F)CC4)nn3)c3cccc4c(=O)n(C(F)F)ccc34)cc12` [Example 788, (S)-8-chloro-6-(((2-(difluoromethyl)-1-oxo-1,2-dihydroisoquinolin-5-yl)(1-(1-(trifluoromethyl)cyclopropyl)-1H-1,2,3-triazol-4-yl)methyl)amino)-4-(neopentylamino)quinoline-3-carbonitrile], the pEC50 is 6.68. On the same count and under the same terms, the figure for `Cn1c(=O)ccc2c([C@H](Nc3cc(Cl)c4ncc(C#N)c(NCC(C)(C)C)c4c3)c3cn(C4(C(F)(F)F)CC4)nn3)cccc21` [Example 789, (S)-8-chloro-6-(((1-methyl-2-oxo-1,2-dihydroquinolin-5-yl)(1-(1-(trifluoromethyl)cyclopropyl)-1H-1,2,3-triazol-4-yl)methyl)amino)-4-(neopentylamino)quinoline-3-carbonitrile] is 6.81.

With `CC(C)(C)CNc1c(C#N)cnc2c(Cl)cc(N[C@@H](c3ccc(Cl)nc3)c3cn(C4(C(F)(F)F)CC4)nn3)cc12` [Example 793, (S)-8-chloro-6-(((6-chloropyridin-3-yl)(1-(1-(trifluoromethyl)cyclopropyl)-1H-1,2,3-triazol-4-yl)methyl)amino)-4-(neopentylamino)quinoline-3-carbonitrile], the pEC50 is 6.11. Consider `Cc1nc(Cl)ccc1[C@H](Nc1cc(Cl)c2ncc(C#N)c(NCC(C)(C)C)c2c1)c1cn(C2(C(F)(F)F)CC2)nn1` [Example 794, (S)-8-chloro-6-(((6-chloro-2-methylpyridin-3-yl)(1-(1-(trifluoromethyl)-cyclopropyl)-1H-1,2,3-triazol-4-yl)methyl)amino)-4-(neopentylamino)quinoline-3-carbonitrile], for which the negative logarithm of the EC50 (pEC50) is 6.89. Same read-out and setting: with `Cc1ccc([C@H](Nc2cc(Cl)c3ncc(C#N)c(NCC(C)(C)C)c3c2)c2cn(C3(C(F)(F)F)CC3)nn2)cn1` [Example 795, (S)-8-chloro-6-(((6-methylpyridin-3-yl)(1-(1-(trifluoromethyl)cyclopropyl)-1H-1,2,3-triazol-4-yl)methyl)amino)-4-(neopentylamino)quinoline-3-carbonitrile] the figure was 6.28.

The experiment is the same for the next values; noted with them: Homo sapiens, Monocyte, read-out: EC50 TNF, LPS-stimulated human monocytes, TNFα TR-FRET.
`CC(C)(C)CNc1c(C#N)cnc2c(C#N)cc(N[C@H](c3cn(C4(C(F)(F)F)CC4)nn3)c3cccc4c(C#N)nccc34)cc12` [Example 817, (S)-6-(((1-cyanoisoquinolin-5-yl)(1-(1-(trifluoromethyl)cyclopropyl)-1H-1,2,3-triazol-4-yl)methyl)amino)-4-(neopentylamino)quinoline-3,8-dicarbonitrile]: the negative logarithm of the EC50 (pEC50) is 6.94.

As for `Cn1cccc([C@H](Nc2cc(C#N)c3ncc(C#N)c(NCC(C)(C)C)c3c2)c2cn(C3(C(F)(F)F)CC3)nn2)c1=O` [Example 844, (S)-6-(((1-methyl-2-oxo-1,2-dihydropyridin-3-yl)(1-(1-(trifluoromethyl)cyclopropyl)-1H-1,2,3-triazol-4-yl)methyl)amino)-4-(neopentylamino)quinoline-3,8-dicarbonitrile], the pEC50 was 6.38. The same measure, in the same setting: the figure for `Cc1nc(F)ccc1[C@H](Nc1cc(C#N)c2ncc(C#N)c(NCC(C)(C)C(F)(F)F)c2c1)c1nnn(C2(C3CC3)CC2)c1F` [Example 862, (S)-6-(((1-([1,1′-bi(cyclopropan)]-1-yl)-5-fluoro-1H-1,2,3-triazol-4-yl)(6-fluoro-2-methylpyridin-3-yl)methyl)amino)-4-((3,3,3-trifluoro-2,2-dimethylpropyl)amino)quinoline-3,8-dicarbonitrile] is 7.31; for `CC1(n2cc([C@@H](Nc3cc(C#N)c4ncc(C#N)c(NCC(C)(C)C(F)(F)F)c4c3)c3cccc4ncccc34)nn2)CC1` [Example 895, (S)-6-(((1-(1-methylcyclopropyl)-1H-1,2,3-triazol-4-yl)(quinolin-5-yl)methyl)amino)-4-((3,3,3-trifluoro-2,2-dimethylpropyl)amino)quinoline-3,8-dicarbonitrile] it is 7.39.

Still in this experiment, the particulars now being: read-out: EC50 TNF; LPS-stimulated human monocytes, TNFα.
In the case of `Cn1nccc1[C@H](Nc1cc(Cl)c2ncc(C#N)c(NCC(C)(C)C)c2c1)c1cn(C2(C(F)(F)F)CC2)nn1` [Example 666, (S)-8-chloro-6-(((1-methyl-1H-pyrazol-S-yl)(1-(1-(trifluoromethyl)cyclopropyl)-1H-1,2,3-triazol-4-yl)methyl)amino)-4-(neopentylamino)quinoline-3-carbonitrile], the pEC50 was 6.61. The same measure, in the same setting: the figure for `Cc1nc(F)ccc1[C@H](Nc1cc(Cl)c2ncc(C#N)c(NCC(C)(C)C)c2c1)c1cn(CC(C)(C)C(F)(F)F)nn1` [Example 755] is 6.44.
